Laboratory results taken from patent US8293738B2, “Indazole inhibitors of kinase” (Abbott Laboratories, priority 2010, dated 2012).
pIC50: −log10 of the molar value.

Columns and labels:
KDR = KDR (Homo sapiens, UniProt P35968); assay: KDR HTRF in vitro kinase assay; assay type: biochemical; parameters: purified enzyme (His6-KDR 789-1354, MW 63 kD); details: 1 mM ATP, 60 minutes
Experimental: To determine the activity of the various kinases, a homogenous time-resolved fluorescence (HTRF) in vitro kinase assay was used. (Mathis, G., HTRF(R) Technology. J Biomol Screen, 1999. 4(6): p. 309-314; Alfred J. Kolb, Paul V. Kaplita, David J. Hayes, Young-Whan Park, Christine Pernell, John S. Major and Gerard Mathis, Drug Discovery Today, 1998, 3, 333-342.)
For example for KDR, 7 ng/well of purified enzyme (His6-KDR 789-1354, MW 63 kD) was mixed with 0.5 μM N-biotinylated substrate (Biotin-Ahx-AEEEYFFLA-amide (SEQ. ID. 1)), various concentrations of inhibitor in reaction buffer (50 mM HEPES, pH 7.1, mM MgCl2, 2 mM MnCl2, 0.1% BSA and 1 mM DTT, […] final volume), ATP (1 mM final conc.) in a black 384-well plate. After 60 minutes incubation at room temperature, the reaction was quenched by addition of a buffered EDTA solution (final approximate concentrations: 30 mM EDTA, 0.1% BSA, 0.1% Triton X-100 and 0.24M KF) and a solution of revelation agents (to give 0.084 ng/well streptavidin-XL-665 (Cis-Bio) and 6.5 ng/well antiphsophotyrosine mAb PT66-K Europium kryptate) was added to the reaction mixture. The quenched reaction was allowed to stand at room temperature for 3 hours and was then read in a time-resolved fluorescence detector (InVision, Perkin-Elmer) at 620 nm and 665 nm sequentially with excitation. The ratio between the signal of 620 nm and 665 nm was used in the calculation of the IC50.

Aurora A = target: T1, Aurora A (Homo sapiens, UniProt O14965); assay: Aurora A enzyme assay (time-resolved fluorescence, STK substrate-2); assay type: biochemical; details: 1 mM ATP, 1 hour
T1 sequence (O14965 1-403): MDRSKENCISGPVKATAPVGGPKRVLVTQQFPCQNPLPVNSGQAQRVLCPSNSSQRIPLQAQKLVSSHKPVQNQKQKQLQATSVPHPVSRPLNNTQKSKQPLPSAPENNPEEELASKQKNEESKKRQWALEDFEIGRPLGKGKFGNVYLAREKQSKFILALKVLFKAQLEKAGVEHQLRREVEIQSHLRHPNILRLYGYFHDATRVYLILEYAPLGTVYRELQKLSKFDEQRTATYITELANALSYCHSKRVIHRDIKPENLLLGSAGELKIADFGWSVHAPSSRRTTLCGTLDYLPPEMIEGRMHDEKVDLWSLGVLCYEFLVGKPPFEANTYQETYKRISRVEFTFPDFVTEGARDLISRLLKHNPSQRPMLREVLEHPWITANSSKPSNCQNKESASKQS
Experimental: To determine Aurora A and C activity of representative compounds of the invention, Active Aurora A or C enzyme was incubated in wells of a 384 well plate with biotinylated STK substrate-2 (Upstate), 1 mM ATP, and various concentrations of inhibitors in a Hepes buffer, pH 7.4 containing MgCl2, sodium othrovanadate, and Triton X-100. After 1 hour, the reaction was stopped with EDTA and anti-phospho-STK antibody Europium Cryptate (Upstate) and SA-XL665 (Upstate) were added to detect the phosphopeptide. The amount of phosphorylation was determined by the time-resolved fluorescence ratio of signals at 665 nm and 615 nm. The IC50s were calculated by an exponential fit of the inhibition values with the inhibitor concentrations using Assay Explorer software.

Aurora B = target: T2, Aurora B (Homo sapiens, UniProt Q96GD4); assay: Aurora B enzyme assay (time-resolved fluorescence, histone H3 peptide); assay type: biochemical; details: 1 mM ATP, 1 hour
T2 construct: Active Aurora B enzyme (recombinant residues 1-344)
T2 sequence (Q96GD4 whole entry, the tested form may be a part): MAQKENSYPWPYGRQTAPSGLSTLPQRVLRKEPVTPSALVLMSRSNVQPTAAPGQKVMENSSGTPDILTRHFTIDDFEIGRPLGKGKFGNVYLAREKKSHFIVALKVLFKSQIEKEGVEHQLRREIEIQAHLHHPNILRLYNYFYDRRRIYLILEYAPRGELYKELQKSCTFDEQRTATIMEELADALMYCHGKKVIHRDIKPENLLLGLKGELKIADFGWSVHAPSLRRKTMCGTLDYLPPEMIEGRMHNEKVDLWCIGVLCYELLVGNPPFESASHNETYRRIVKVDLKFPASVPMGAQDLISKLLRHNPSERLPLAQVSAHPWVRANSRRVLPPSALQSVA
T2 sequence (Q9NQS7 826-918 partner limits assumed): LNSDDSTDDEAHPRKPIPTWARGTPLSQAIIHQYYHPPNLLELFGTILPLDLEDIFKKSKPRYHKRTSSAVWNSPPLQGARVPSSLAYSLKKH
Experimental: To determine Aurora B activity of representative compounds of the invention, Active Aurora B enzyme (recombinant residues 1-344) and INCENP (recombinant GST fusion protein (Upstate)) were incubated in wells of a 384 well plate with biotinylted histone H3 peptide residues 1-21 (Upstate), 1 mM ATP, and various concentrations of inhibitors in a HEPES buffer, pH 7.4 containing MgCl2, sodium othrovanadate, and Triton X-100. After 1 hour, the reaction was stopped with EDTA and anti-phospho-histone H3 Europium Cryptate (Cis-Bio) and SA-APC (Phycolink, Prozyme) were added to detect the phosphopeptide. The amount of phosphorylation was determined by the time-resolved fluorescence ratio of signals at 665 nm and 615 nm. The IC50's were calculated by an exponential fit of the inhibition values with the inhibitor concentrations using Assay Explorer software.

[1] = test system: H1299 cells (Human Non-Small Cell Lung Carcinoma); assay: Induction of polyploidy in H1299 cells, high content analysis; assay type: cell-based; details: NCI-H1299 cells, 48 hours, polyploid = nuclear area >750μ2, read-out: Polyploid HCA IC50
Experimental: To determine the induction of polyploidy in H1299 cells (Human Non-Small Cell Lung Carcinoma), NCI-H1299 were seeded (4K/well) into 96-well culture plates (tissue culture grade, black, flat-clear bottom) and incubated overnight to produce cell-to-plate adherance Inhibitors at varying concentrations were added into duplicate wells containing cells and culture media (RPMI 1640, 10% fetal calf serum) and incubated at 37 C for 48 hours. The plates were then washed with PBS and the adherent cells fixed by incubating with 3% formalin for 1 hour. After washing four times with PBS, the cells were then stained with Hoechst and subjected to fluorescent (3601/460e) microscopic high content analysis to determine the effect of inhibitors on nuclear size. Polyploid cells (>4N) were defined as those having nuclear area >750μ2. […]

KDR, sequence (P35968 789-1354): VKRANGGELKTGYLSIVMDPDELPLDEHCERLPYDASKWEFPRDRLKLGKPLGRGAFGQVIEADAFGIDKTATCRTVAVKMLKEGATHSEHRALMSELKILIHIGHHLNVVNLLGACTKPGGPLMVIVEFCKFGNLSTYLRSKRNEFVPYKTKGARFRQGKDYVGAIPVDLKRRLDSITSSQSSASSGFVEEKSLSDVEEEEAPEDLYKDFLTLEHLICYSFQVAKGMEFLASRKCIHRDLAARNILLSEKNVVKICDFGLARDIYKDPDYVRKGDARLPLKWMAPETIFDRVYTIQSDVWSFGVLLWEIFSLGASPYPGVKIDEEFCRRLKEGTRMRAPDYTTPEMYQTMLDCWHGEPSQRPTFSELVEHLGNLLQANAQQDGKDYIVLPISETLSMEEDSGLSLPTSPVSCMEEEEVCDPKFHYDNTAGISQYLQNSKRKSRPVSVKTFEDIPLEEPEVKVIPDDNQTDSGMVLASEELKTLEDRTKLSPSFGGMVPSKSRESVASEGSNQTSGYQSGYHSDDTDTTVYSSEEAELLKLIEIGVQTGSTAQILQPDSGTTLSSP

| pIC50 (KDR) | pIC50 (Aurora A) | pIC50 (Aurora B) | pIC50 [1] | SMILES |
| --- | --- | --- | --- | --- |
| 7.31 | < 4.90 | 5.88 | – | Cc1cccc(NC(=O)Nc2cccc(-c3ccc4c(-c5cnn(C)c5)n[nH]c4c3)c2)c1 [Example 17, N-(3-methylphenyl)-N′-{3-[3-(1-methyl-1H-pyrazol-4-yl)-1H-indazol-6-yl]phenyl}urea] |
| 5.17 | < 4.90 | 6.85 | – | CC(C)(O)Cn1cc(-c2n[nH]c3cc(-c4ccc(NC(=O)Nc5cccc(F)c5)cc4)ccc23)cn1 [Example 15, N-(3-fluorophenyl)-N′-(4-{3-[1-(2-hydroxy-2-methylpropyl)-1H-pyrazol-4-yl]-1H-indazol-6-yl}phenyl)urea] |
| 6.54 | 5.84 | 6.68 | – | Cc1cccc(NC(=O)Nc2ccc(-c3ccc4c(-c5ccc[nH]5)n[nH]c4c3)cc2)c1 [Example 4, N-(3-methylphenyl)-N′-{4-[3-(1H-pyrrol-2-yl)-1H-indazol-6-yl]phenyl}urea] |
| 7.52 | < 4.90 | 6.31 | – | Cn1cc(-c2n[nH]c3cc(-c4ccc(NC(=O)Nc5cccc(OC(F)(F)F)c5)cc4)ccc23)cn1 [Example 25, N-{4-[3-(1-methyl-1H-pyrazol-4-yl)-1H-indazol-6-yl]phenyl}-N′-[3-(trifluoromethoxy)phenyl]urea] |
| 6.23 | < 4.90 | 6.92 | – | Cc1cccc(NC(=O)Nc2ccc(-c3ccc4c(-c5cccnc5)n[nH]c4c3)cc2)c1 [Example 33, N-(3-methylphenyl)-N′-[4-(3-pyridin-3-yl-1H-indazol-6-yl)phenyl]urea] |
| 7.50 | < 4.90 | 6.71 | – | Cc1cccc(NC(=O)Nc2ccc(-c3ccc4c(-c5cnn(CCN6CCOCC6)c5)n[nH]c4c3)cc2)c1 [Example 5, N-(3-methylphenyl)-N′-(4-{3-[1-(2-morpholin-4-ylethyl)-1H-pyrazol-4-yl]-1H-indazol-6-yl}phenyl)urea] |
| 6.81 | 4.99 | 7.23 | 6.89 | O=C(Nc1ccc(-c2ccc3c(-c4cnn[nH]4)n[nH]c3c2)cc1)Nc1cccc(F)c1 [Example 21, N-(3-fluorophenyl)-N′-{4-[3-(1H-1,2,3-triazol-5-yl)-1H-indazol-6-yl]phenyl}urea] |
| < 4.90 | < 4.90 | < 4.90 | – | Cn1nccc1-c1n[nH]c2cc(-c3ccc(NC(=O)Nc4cccc(F)c4)cc3)ccc12 [Example 14, N-(3-fluorophenyl)-N′-{4-[3-(1-methyl-1H-pyrazol-5-yl)-1H-indazol-6-yl]phenyl}urea] |
| 6.52 | < 4.90 | < 4.90 | – | Cc1cccc(NC(=O)Nc2ccc(-c3ccc4c(-c5cc6ccccc6[nH]5)n[nH]c4c3)cc2)c1 [Example 36, N-{4-[3-(1H-indol-2-yl)-1H-indazol-6-yl]phenyl}-N′-(3-methylphenyl)urea] |
| 5.75 | 5.28 | 6.85 | – | Cn1cc(-c2n[nH]c3cc(-c4ccc(CNC(=O)c5cccc(F)c5)cc4)ccc23)cn1 [Example 31, 3-fluoro-N-{4-[3-(1-methyl-1H-pyrazol-4-yl)-1H-indazol-6-yl]benzyl}benzamide] |
| 4.91 | < 4.90 | < 4.90 | – | Cc1cccc(NC(=O)Nc2ccc(-c3ccc4c(-c5ccsc5)n[nH]c4c3)cc2)c1 [Example 7, N-(3-methylphenyl)-N′-[4-(3-thien-3-yl-1H-indazol-6-yl)phenyl]urea] |
| 6.56 | < 4.90 | < 4.90 | – | Cc1cccc(NC(=O)Nc2cccc(-c3ccc4c(-c5cccnc5)n[nH]c4c3)c2)c1 [Example 34, N-(3-methylphenyl)-N′-[3-(3-pyridin-3-yl-1H-indazol-6-yl)phenyl]urea] |
| 7.62 | < 4.90 | 6.81 | – | Cn1cc(-c2n[nH]c3cc(-c4ccc(NC(=O)Nc5cccc(C(F)(F)F)c5)cc4)ccc23)cn1 [Example 18, N-{4-[3-(1-methyl-1H-pyrazol-4-yl)-1H-indazol-6-yl]phenyl}-N′-[3-(trifluoromethyl)phenyl]urea] |
| 7.42 | < 4.90 | 6.06 | – | Cn1cc(-c2n[nH]c3cc(-c4ccc(NC(=O)Nc5ccc(OC(F)(F)F)cc5)cc4)ccc23)cn1 [Example 28, N-{4-[3-(1-methyl-1H-pyrazol-4-yl)-1H-indazol-6-yl]phenyl}-N′-[4-(trifluoromethoxy)phenyl]urea] |
| 5.44 | < 4.90 | 5.72 | – | Cc1cccc(NC(=O)Nc2ccc(-c3ccc4c(-c5ccccc5)n[nH]c4c3)cc2)c1 [Example 32, N-(3-methylphenyl)-N′-[4-(3-phenyl-1H-indazol-6-yl)phenyl]urea] |
| 6.66 | 4.96 | 7.06 | – | CCCn1cc(-c2n[nH]c3cc(-c4ccc(NC(=O)Nc5cccc(F)c5)cc4)ccc23)cn1 [Example 13, N-(3-fluorophenyl)-N′-{4-[3-(1-propyl-1H-pyrazol-4-yl)-1H-indazol-6-yl]phenyl}urea] |
| 6.25 | < 4.90 | 6.24 | – | Cc1cccc(NC(=O)Nc2ccc(-c3ccc4c(-c5cscn5)n[nH]c4c3)cc2)c1 [Example 35, N-(3-methylphenyl)-N′-{4-[3-(1,3-thiazol-4-yl)-1H-indazol-6-yl]phenyl}urea] |
| 7.01 | < 4.90 | 6.11 | – | Cn1cc(-c2n[nH]c3cc(-c4ccc(NC(=O)Nc5ccccc5OC(F)(F)F)cc4)ccc23)cn1 [Example 27, N-{4-[3-(1-methyl-1H-pyrazol-4-yl)-1H-indazol-6-yl]phenyl}-N′-[2-(trifluoromethoxy)phenyl]urea] |
| < 4.90 | < 4.90 | 5.99 | – | Cn1cc(-c2n[nH]c3cc(-c4ccc(CNC(=O)Nc5cccc(F)c5)cc4)ccc23)cn1 [Example 24, N-(3-fluorophenyl)-N′-{4-[3-(1-methyl-1H-pyrazol-4-yl)-1H-indazol-6-yl]benzyl}urea] |

| SMILES | pIC50 (KDR) | pIC50 (Aurora A) | pIC50 (Aurora B) | pIC50 [1] |
| --- | --- | --- | --- | --- |
| O=C(Nc1ccc(-c2ccc3c(-c4cnn(CCO)c4)n[nH]c3c2)cc1)Nc1cccc(C(F)(F)F)c1 [Example 11, N-(4-{3-[1-(2-hydroxyethyl)-1H-pyrazol-4-yl]-1H-indazol-6-yl}phenyl)-N′-[3-(trifluoromethyl)phenyl]urea] | 7.68 | < 4.90 | 6.87 | – |
